Laboratory results: patent publication US5659012A, “Peptide which binds SH2 domains of protein tyrosine phosphatase SH-PTP1” (Whitehead Institute for Biomedical Research, priority 1995, dated 1997)

Key:
[1] = tested on: 32D cells expressing the EPO-R mutant Y429,431F; assay: Proliferation assay (3H-Thymidine incorporation), EPO-dependent proliferation; assay type: cell-based
Description: (§1) FIG. 2 is a graphic illustration of EPO-dependent proliferation of 32D cells expressing the wt EPO-R and the EPO-R mutant Y429, 431F. […] Each data point represents the mean of triplicate determinations±standard deviation.
(§2) To assess the role of SH-PTP1 in regulating proliferative signals generated by the EPO-R, the proliferation of 32D cells expressing wt EPO-R or EPO-R Y429,431F was measured. […] When grown in EPO, the half-maximal proliferation of pools of 32D cells expressing the wt EPO-R required 0.25 units EPO/ml and maximal proliferation required about 1 units/ml (FIG. 2). […] Pools of 32D cells expressing the mutant EPO-R Y429,431F achieved half-maximal proliferation in as little as 0.025 units EPO/ml, reaching a maximum rate at 0.1 units/ml (FIG. 2). At the highest EPO concentrations employed, the rate of proliferation of cell pools expressing the wt EPO-R or the EPO-R mutant Y429,431F was the same.
(§3) Proliferation assays were performed in 96 well plates with 200 μl/well. 5×10^4 32D cells/ml were seeded in the presence of indicated amounts of cytokines (EPO O--5 units/ml; IL3 0-100 units/ml). After 48 hours, 1 μCi 3H-Thymidine (DuPont NEN)/well was added for another 3 hours. The labeled cells were then harvested by a 96 well plate harvester (Scantron Instruments Inc.) and the amount of radioactively labeled DNA was quantitated in a scintillation counter.

[2] = tested on: 32D cells expressing the wt EPO-R; assay: as above; assay type: cell-based; details: pools of 32D cells expressing wt EPO-R
Description: as §1, §2, §3

[3] = pools of 32D cells expressing mutant EPO-R Y429,431F

In the case of Erythropoietin [EPO], the “amount of EPO allowing proliferation relative to the normal amount” value ([1]; mutant EPO-R unable to bind SH-PTP1 versus wt EPO-R) was “one-fifth to one-tenth”, the “EPO giving half-maximal proliferation” value [1, 3] was 0.025 units EPO/ml and the “EPO giving maximum rate of proliferation” value [1, 3] was 0.1 units/ml. The “EPO required for maximal proliferation” value [2] was “about 1 units/ml” and the “EPO required for half-maximal proliferation” value ([2]; 48 h + 3 h 3H-Thymidine) was 0.25 units EPO/ml.
